Source: patent publication US12653900B2, “Antibody drug conjugates comprising ecteinascidin derivatives” (PHARMA MAR, S.A., priority 2018, dated 2026)
Where “and” joins values, the source holds several entries; their conditions need not be identical. Equal values may be shown once. Read-outs that look alike come from different tables or passages of the source.

Assays:
Type in all cases: cell-based
HT29 = test: cells; details: Homo sapiens, HT-29; HT29, 72 hours treatment, SRB
Text: (§1) Evaluation of Cytotoxic Activity Using the SRB and the MTT Colorimetric Assays

MDA-MB-231 = test: cells; details: Homo sapiens; MDA-MB-231, 72 hours treatment, SRB
Text: as §1

[1] = tested on: SK-BR-3, HCC-1954, MDA-MB-231 and MCF-7 cells; test: In vitro cytotoxicity across the HER2 breast cancer cell panel and HER2 selectivity; details: Homo sapiens
Description: For SK-BR-3, HCC-1954, MDA-MB-231 and MCF-7 cells, a colorimetric assay using Sulforhodamine B (SRB) was adapted for quantitative measurement of cell growth and cytotoxicity, as described in V. Vichai and K. Kirtikara. Sulforhodamine B colorimetric assay for cytotoxicity screening. Nature Protocols, 2006, 1, 1112-1116. Briefly, cells were seeded in 96-well microtiter plates and allowed to stand for 24 hours in drug-free medium before treatment with vehicle alone or with the tested substances for 72 hours.
(§2) Cell survival was expressed as percentage of control, untreated cell survival.
Standard dose-response (DR) curves for 72 hours incubation with the tested substances were performed.

MCF-7 (HER2−) = test: In vitro cytotoxicity of ADCs and related reagents, SRB assay; details: Homo sapiens, MCF7
Description: (§3) Sulforhodamine B colorimetric assay for cytotoxicity screening. […] Briefly, cells were seeded in 96-well microtiter plates and allowed to stand for 24 hours in drug-free medium before treatment with vehicle alone or with the tested substances for 72 hours.
as §2

HCC-1954 (HER2+) = test: as above; details: Homo sapiens, HCC1954
Description: as §3, §2

MDA-MB-231 (HER2−) = test: as above; details: Homo sapiens
Description: as §3, §2

SK-BR-3 (HER2+) = test: as above; details: Homo sapiens
Description: as §3, §2

[2] = read-out: IC50 values, range over the four cell lines
[3] = read-out: geometric mean IC50 value across the whole cell panel
[4] = MCF-7, HER2 negative, 72 hours, read-out: IC50
[5] = HCC-1954, HER2 positive, 72 hours, read-out: IC50
[6] = MDA-MB-231, HER2 negative, 72 hours, read-out: IC50
[7] = SK-BR-3, HER2 positive, 72 hours, read-out: IC50

Compound	IC (TGI) (HT29)	IC (TGI) (MDA-MB-231)	IC50 [1, 2]	IC50 [1, 3]	IC50 (MCF-7 (HER2−); [4])	IC50 (HCC-1954 (HER2+); [5])	IC50 (MDA-MB-231 (HER2−); [6])	IC50 (SK-BR-3 (HER2+); [7])	IC50 (MCF-7 (HER2−); MCF-7 cells, 72 hours incubation, read-out: IC50 MCF-7 (HER2 negative))	IC50 (HCC-1954 (HER2+); HCC-1954 cells, 72 hours incubation, read-out: IC50 HCC-1954 (HER2 positive))	IC50 (MDA-MB-231 (HER2−); MDA-MB-231 cells, 72 hours incubation, read-out: IC50 MDA-MB-231 (HER2 negative))	IC50 (SK-BR-3 (HER2+); SK-BR-3 cells, 72 hours incubation, read-out: IC50 SK-BR-3 (HER2 positive))
COc1c(C)cc2c(c1O)[C@@H]1[C@@H]3[C@@H]4SC[C@]5(N[C@@H](CN)Cc6c5oc5ccccc65)C(=O)OC[C@@H](c5c6c(c(C)c(OC(C)=O)c54)OCO6)N3[C@@H](C#N)[C@H](C2)N1C [46-R]	1.39 nM	1.39 nM	–	–	–	–	–	–	–	–	–	–
COc1c(C)cc2c(c1O)[C@@H]1[C@@H]3[C@@H]4SC[C@]5(N[C@@H](CNC(=O)OCc6ccc(NC(=O)[C@H](CCCNC(N)=O)NC(=O)[C@@H](NC(=O)CCCCCN7C(=O)C=CC7=O)C(C)C)cc6)Cc6c5[nH]c5ccccc65)C(=O)OC[C@@H](c5c6c(c(C)c(OC(C)=O)c54)OCO6)N3[C@@H](C#N)[C@H](C2)N1C [DL 1]	–	–	0.07 µg/mL to 0.43 µg/mL and 52.3 nM to 311 nM	0.16 µg/mL and 115 nM	0.433 µg/mL and 311 nM	0.18 µg/mL and 129 nM	0.0728 µg/mL and 52.3 nM	0.116 µg/mL and 83.1 nM	–	–	–	–
COc1c(C)cc2c(c1O)[C@@H]1[C@@H]3[C@@H]4SC[C@]5(N[C@@H](CNC(=O)OCc6ccc(NC(=O)[C@H](CCCNC(N)=O)NC(=O)[C@@H](NC(=O)CCOCCOCCOCCOCCNC(=O)CCN7C(=O)C=CC7=O)C(C)C)cc6)Cc6c5[nH]c5ccccc65)C(=O)OC[C@@H](c5c6c(c(C)c(OC(C)=O)c54)OCO6)N3[C@@H](C#N)[C@H](C2)N1C [DL 2]	–	–	0.2 µg/mL to 0.47 µg/mL and 125 nM to 294 nM	0.28 µg/mL and 173 nM	0.469 µg/mL and 294 nM	0.31 µg/mL and 194 nM	0.2 µg/mL and 125 nM	0.2 µg/mL and 125 nM	–	–	–	–
COc1c(C)cc2c(c1O)[C@@H]1[C@@H]3[C@@H]4SC[C@]5(N[C@@H](CNC(=O)OCc6ccc(NC(=O)[C@H](C)NC(=O)[C@@H](NC(=O)CCOCCOCCOCCOCCNC(=O)CCN7C(=O)C=CC7=O)C(C)C)cc6)Cc6c5[nH]c5ccccc65)C(=O)OC[C@@H](c5c6c(c(C)c(OC(C)=O)c54)OCO6)N3[C@@H](C#N)[C@H](C2)N1C [DL 3]	–	–	0.15 µg/mL to 0.28 µg/mL and 99.3 nM to 185 nM	0.2 µg/mL and 133 nM	0.279 µg/mL and 185 nM	0.24 µg/mL and 159 nM	0.15 µg/mL and 99.3 nM	0.16 µg/mL and 106 nM	–	–	–	–
COc1c(C)cc2c(c1O)[C@@H]1[C@@H]3[C@@H]4SC[C@]5(N[C@@H](CNC(=O)OCc6ccc(NC(=O)[C@H](C)NC(=O)[C@@H](NC(=O)CCOCCOCCOCCOCCNC(=O)CCN7C(=O)C=CC7=O)C(C)C)cc6)Cc6c5[nH]c5ccccc65)C(=O)OC[C@@H](c5c6c(c(C)c(OC(C)=O)c54)OCO6)N3[C@@H](O)[C@H](C2)N1C [DL 5]	–	–	0.1 µg/mL to 0.19 µg/mL and 65.3 nM to 127 nM	0.13 µg/mL and 88.4 nM	0.17 µg/mL and 113 nM	0.191 µg/mL and 127 nM	0.0981 µg/mL and 65.3 nM	0.0981 µg/mL and 65.3 nM	–	–	–	–
COc1c(C)cc2c(c1O)[C@@H]1[C@@H]3[C@@H]4SC[C@]5(N[C@@H](CNC(=O)OCc6ccc(NC(=O)[C@H](CCCNC(N)=O)NC(=O)[C@@H](NC(=O)CCCCCN7C(=O)C=CC7=O)C(C)C)cc6)Cc6c5[nH]c5ccccc65)C(=O)OC[C@@H](c5c6c(c(C)c(OC(C)=O)c54)OCO6)N3[C@@H](O)[C@H](C2)N1C [DL 6]	–	–	0.04 µg/mL to 0.3 µg/mL and 31 nM to 197 nM	0.11 µg/mL and 78.9 nM	–	–	–	–	0.273 µg/mL and 197 nM	0.171 µg/mL and 124 nM	0.0429 µg/mL and 31 nM	0.0709 µg/mL and 51.3 nM
